Data from patent US12139458B2, “(2,5-dioxopyrrolidin-1-yl)(phenyl)-acetamide derivatives and their use in the treatment of neurological diseases” (UNIWERSYTET JAGIELLONSKI, priority 2019, dated 2024).

Tests used:
[1] = tested on: male Swiss albino mice (CD-1); experiment: Maximal electroshock seizure test (MES); assay type: in vivo
Procedure, shortened: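 Seizures were induced by auricular electroshock (25 mA, 500 V, 0.2 s) 30 min after a single i.p. dose in 1% aqueous Tween, scoring hind-limb tonic extension. Animals were male Swiss CD-1 mice, 18–26 g; ED50 was estimated from 3–4 dose groups of 6.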

[2] = tested on: Ca2+ channel type L (dihydropyridine binding site); experiment: Ca2+ channel type L (dihydropyridine binding site) affinity study; settings: rat cerebral cortex
Excerpt: A unique feature of the compound 6 representing compounds of formula (II) according to the invention is the inhibition of calcium currents by blocking the transient receptor potential vanilloid type 1 (TRPV1). This effect has not been disclosed for known AEDs. TRPV1 receptor antagonism may determine the antinociceptive effect of the compounds disclosed herein. The role of the TRPV1 receptor in conduction of pain stimuli has been well documented in specialist literature (Szallasi, A.; Cortright, D. N.; Blum, C. A.; Eid, S. R. Nat. Rev. Drug. Discov. 2007, 6, 357-372). The compounds according to the invention are characterized by a complex mechanism of action, which is not described for known anticonvulsants. It should be emphasized, however, that further in vitro studies may reveal further molecular targets responsible for the pharmacological action of substances being the subject of current patent claim. The results of binding studies (sodium channel, calcium channel) and functional tests (TRPV1 receptor) for compound 6 are shown in Table 3.

[3] = tested on: HepG2 cells; experiment: In vitro hepatotoxicity, MTS cell viability assay; assay type: cell-based; settings: 100 μM, 72 h incubation, p<0.05
Procedure: (§1) In vitro hepatotoxicity assessment. The studies were conducted using the hepatoma HepG2 liver cancer cell line, which is used to assess the hepatotoxicity of the substance in vitro. A classic MTS colorimetric assay from Promega (Madison, WI, USA) was used to investigate the effect of 6 on HepG2 cell viability and proliferation. The compound was tested at four concentrations in the range (0.1-100 μM). Doxorubicin at a concentration of 1 μM was used as a reference cytostatic. In addition, the reference mitochondrial toxin carbonyl cyanide m-chlorophenylhydrazone (CCCP) at a concentration of 10 μM was also used (FIG. 10). […] In addition, cell viability was reduced to just 84% of the control, indicating a trace toxic effect of this compound on HepG2 cell lines. Due to the particular exposure of liver cells to the potential toxic effects of xenobiotics, an additional test was carried out with the HepG2 line in the form of luminescent measurement of ATP levels in cells, after a short 3-hour exposure to compound 6, in concentrations in the range of 1-100 μM. […]
In vitro hepatotoxicity assessment—methodology. […] Plates were again incubated for 2-3 hours, followed by absorbance measurement at 490 nm with an EnSpire PerkinElmer (Waltham, MA, USA) reader. Statistical significance was calculated by one-way ANOVA variance analysis and the Bonferroni method. […]

[4] = tested on: HepG2 cells; experiment: ATP level, CellTiter-Glo Luminescent Cell Viability Assay; assay type: cell-based; settings: 1-100 μM, 3 h exposure
Procedure: as §1, with “lines.” for “lines. Due to the particular exposure of liver cells to the potential toxic effects of xenobiotics, an additional test was carried out with the HepG2 line in the form of luminescent measurement of ATP levels in cells, after a short 3-hour exposure to compound 6, in concentrations in the range of 1-100 μM.”
CellTiter-Glo Luminescent Cell Viability Assay from Promega (Madison, WI, USA) was used to study ATP levels in HepG2 cells. Prior to testing, the cells were plated into white, 96-well transparent bottom culture plates from Corning (Tewksbury, MA, USA), adapted for luminescence measurement at a concentration of 1.5×10^4 cells per well. […] Luminescence measurement was carried out with an EnSpire PerkinElmer (Waltham, MA, USA) reader after adding CellTiter-Glo Luminescent Cell Viability Assay in an amount of 100 μl to the culture. Statistical significance was calculated by one-way ANOVA and Bonferroni analysis using GraphPad Prism 5. […]

O=C(C(c1ccccc1)N1C(=O)CCC1=O)N1CCN(c2cccc(C(F)(F)F)c2)CC1 (racemic) [Compound 6, 1-(2-Oxo-1-phenyl-2-(4-(3-(trifluoromethyl)phenyl)piperazin-1-yl)ethyl)pyrrolidine-2,5-dione]
ED50 ([1]; Mus musculus, ip, 0.5 h, mice): 23.7 mg/kg | mice protected in the MES test ([1]; screening, 100 mg/kg, time point 0.5 h): 100% | Inhibition of specific control binding, Ca2+ channel type L (dihydropyridine binding site) ([2]; 10 μM): 30.8 (10) % | Inhibition of specific control binding, Ca2+ channel type L (dihydropyridine binding site) ([2]; 100 μM): 82.3 (100) % | HepG2 cell viability, % of the control [3]: 84% | effect on ATP levels in HepG2 cells [4]: no statistically significant effect
